The text below walks through data of patent publication US11311498B2, “Use of cannabinoids in the treatment of epilepsy” (GW Pharma Limited, priority 2014, dated 2022).

Data set [1] has as its system seizures. Particulars: 200 mg/day pure CBD, cited from earlier work.
For data set [2], the system named is seizures. Conditions: twelve institutionalized adult patients; 200 mg/day pure CBD; open label; cited from earlier work.
A short description of data set [3]: Solubility of the drug substance in water. In kind it is physicochemical. An excerpt: Sesame oil was selected as an excipient to solubilize the drug substance.
The subject of data set [4] is seizures. Conditions: previous studies in animals; multiple species and models; cited from earlier work.
The test system of data set [5] is seizures. Conditions: of eight adult patients with generalized epilepsy; cited from earlier work.
For data set [6], the system named is myoclonic absence seizures. Put plainly: Expanded access program: myoclonic absence seizures in children and young adults with treatment-resistant epilepsy. It counts as in vivo, human. Particulars: 12 weeks of treatment vs 4-week baseline; head n = 10; CBD 5 up to 25 mg/kg/day added to baseline AED. Here is the method:
(§1) The terms “50% responder” and “50% reduction in seizure” are both terms used in clinical studies. In the present application the terms define the percentage of subjects that experienced a greater than or equal to 50% reduction in the number of seizures during treatment with CBD in comparison to the number experienced during the baseline period before the CBD was administered.
Of 137 children and young adults with severe, childhood onset treatment-resistant epilepsy (TRE), ten suffered from epilepsy that was characterised by myoclonic absence seizures. These subjects were tested with a highly purified extract of cannabidiol (CBD) obtained from a cannabis plant. All subjects presented with myoclonic absence type seizures, often in addition to other generalised and/or focal seizures. The participants in the study were part of an expanded access compassionate use program for CBD.
The epileptic syndromes that these patients suffered from were as follows: Myoclonic Absence Epilepsy; Doose Syndrome; and epilepsy of unknown cause.
(§2) All patients entered a baseline period of 4 weeks when parents/caregivers kept prospective seizure diaries, noting all countable seizure types.
The patients then received a highly purified CBD extract (greater than 98% CBD w/w) in sesame oil, of known and constant composition, at a dose of 5 mg/kg/day in addition to their baseline anti-epileptic drug (AED) regimen. […]

A further data set concerns seizures in mice. Particulars: after pro-convulsant drugs or an electric current; cited from earlier work.
For a further data set, the system named is absence seizures. As to the kind of experiment: Expanded access program: absence seizures in children and young adults with treatment-resistant epilepsy. In kind it is in vivo, human. Particulars: 12 weeks of treatment vs 4-week baseline; n = 28; CBD 5 up to 25 mg/kg/day added to baseline AED. The protocol:
as §1
(§3) Of 137 children and young adults with severe, childhood onset treatment-resistant epilepsy (TRE), forty-two suffered from epilepsy that was characterised by absence seizures. These subjects were tested with a highly purified extract of cannabidiol (CBD) obtained from a cannabis plant. All subjects presented with absence type seizures, often in addition to other generalised and/or focal seizures. The participants in the study were part of an expanded access compassionate use program for CBD.
The epileptic syndromes that these patients suffered from were as follows: Lennox-Gastaut Syndrome; Myoclonic Absence Epilepsy; Tuberous Sclerosis Complex; Dravet Syndrome; Doose Syndrome; Jeavons Syndrome; CDKL5; Dup15q; Neuronal ceroid lipofuscinoses (NCL) and brain abnormalities. […]

The test system of the next data set is total seizures. As to the kind of experiment: Expanded access program: total seizures in all subjects treated. In kind it is in vivo, human. Particulars: 12 weeks of treatment, n = 137. The protocol:
as §1, §3, §2
The patients then received a highly purified CBD extract (greater than 98% CBD w/w) in sesame oil, of known and constant composition, at a dose of 5 mg/kg/day in addition to their baseline anti-epileptic drug (AED) regimen.
Laboratory testing for hematologic, liver, kidney function, and concomitant AED levels was performed at baseline, and after every 4 weeks of CBD therapy.

For data set [7], the system named is seizures. Conditions: Consroe et al., 1977; cited from earlier work.

Consider `C=C(C)[C@@H]1CCC(C)=C[C@H]1c1c(O)cc(CCCCC)cc1O` [CBD, Cannabidiol], for which, in the data set with seizures [1] (of four adult patients), the “patients who became seizure free” value was “two”. In addition, the “seizure frequency in the remainder of patients” value in the data set with seizures [1] (remaining two of four adult patients) was “unchanged”. In the data set with seizures [2], the control of seizures entry is reported as “ineffective in controlling seizures”. Also, in [3], the solubility in water entry is on record as “insoluble in water”. Besides, the anticonvulsant efficacy entry in the data set with seizures [4] was “has anticonvulsant efficacy in multiple species and models”. Further, in the data set with seizures [5], the “patients with marked reduction of seizures” value is reported as 4. Moreover, the “<50% reduction in seizures, myoclonic absence seizures (proportion of patients)” value in data set [6] is on record as 25% (n = 2). Moreover, the prevention of seizures result with seizures in mice is on record as “able to prevent seizures”. Also, in the data set with absence seizures, the “<50% reduction in seizures, absence seizures (proportion of patients)” value is 36% (n = 10). The “<50% reduction in seizures, total seizures (proportion of patients)” value in the data set with total seizures is given as 54% (n = 74).
In the case of `CCCCCc1cc(O)c2c(c1)OC(C)(C)[C@@H]1CCC(C)=C[C@@H]21` [THC, Tetrahydrocannabinol], in the data set with seizures [7], the effect on convulsions result is “pro-convulsant”.
